Where two headings read alike, the source gives them in different places.
Tests used:
[1] = Bioavailability and pharmacokinetics in normal rats; assay type: in vivo, rat; conditions: for AUC / Cmax / MRT / half-life / bioavailability: female, CD, rat, plasma, po; for AUC / Cmax / MRT / half-life / CL / Vss: rat plasma, acid suspended in 1% methyl cellulose; for bioavailability: acid, read-out: Bioavailability for oral administration; for CL / Vss: oral
Experimental: Female CD rats (from 200 to 250 g body weight) were obtained from Charles River Canada Inc. (St. Constant, Quebec, Canada). The animals were kept 4 per cage with an air filter cover under light (12 h light/dark cycle, light on at 06 h 00) and temperature (22°±1° C.)-controlled environment. All manipulations with the animals were performed under a sterilized laminar hood. The animals had ad libitum access to Purina rat chow (Pro Lab PMH 4018, Trademark of Agway, Syracuse, N.Y.) and water. The animal studies were conducted according to the “Guidelines for Care and Use of Experimental Animals”.
For Amlexanox salt the dosing solution was prepared by dissolving 20 mg of Amlexanox in equi-molar NaOH solution and then, equilibrated with 1M Tris-HCl pH 7.4. For Amlexanox acid the dosing solution was prepared by simple suspending 20 mg of Amlexanox in 1% methyl cellulose in water.
Amlexanox dosing solution (20 mg/mL) was administered i.v. and orally in normal rats (four animals in each group) at doses of 10, 25, 50, 100 and 200 mg/kg. After various time intervals (30 min and 1, 3, 6, 10 and 24 h) post-injection, blood was collected from eye vein of animals. Then, blood was immediately centrifuged, and plasma was separated. The plasma samples were immediately frozen in dry ice and stored at −80° C. until further use.
The defrosted plasma samples were centrifuged at 2000 g for 5 min, and aliquots (10 μL) of each sample were transferred into 1.5-ml plastic tubes. The samples were diluted with phosphate buttered saline (PBS) in various amounts of times and aliquots of 100 μL were transferred into the other 1.5-ml plastic tubes. The samples were extracted with 1 mL of 100% acetonitrile for 10 min on 180° rotator. Then, the tubes were centrifuged at 10,000 g for 15 min.
(§1) The supernatant was separated to glass tubes and evaporated in a stream of nitrogen at […]. until dryness. The dried samples were kept at −20° C. until HPLC analysis. The samples were reconstituted in 100 μL of mobile phase analyze before analyze by HPLC.
(§2) The samples were analysed by HPLC using 250×4.6 mm, Phenomenex C18 Luna, 5 micron column, 1 mL/min flow rate of mobile phase 73% of 25 mM sodium phosphate pH 7.5 and 27% acetonitrile; fluorescent deyection λexcitation=348 nm, λemission=404 nm.
The concentrations of Amlexanox in samples were determined by comparison with calibration curve obtained from spiked rat plasma samples using the same analytical method. The areas under the curves (AUC) of Amlexanox were calculated by trapezoidal method.

[2] = Pharmacokinetics in normal dogs; assay type: in vivo, dog (Canis familiaris); conditions: 10 mg/kg
Experimental: Experiments were performed in 6 male Beagle dogs (Canis familiaris) (from 8 to 14 kg body weight, 2 to 3 years of age). The animals had ad libitum access to tap water. Commercial dog chow was provided to the animals once daily during a 2-hour feeding period.
Dosing solution of amlexanox salt was prepared by simple dissolving of amlexanox salt in water. Dosing solution of amlexanox acid was prepared suspending of amlexanox acid in 0.5% methyl cellulose.
Amlexanox acid and Na salt forms were orally administered by gavage in dogs (three animals in each group) at doses of 10 mg/kg. Amlexanox tablets L and CP, prepared according to Example 13, were administered to dogs orally at doses of 10 mg/kg. After various time intervals (pre-dose, 15, 30 min and 1, 2, 3, 6, 8, 12, 24 and 48 h) post-injection, blood was collected from the jugular vein of animals. Then, blood was immediately centrifuged, and plasma was separated. The plasma samples were immediately frozen in dry ice and stored at −80° C. until further use.
The defrosted plasma samples were centrifuged at 2000 g for 5 min, and aliquots (10 μL) of each sample were transferred into 1.5-ml plastic tubes. The samples were diluted with PBS in various amounts of times and aliquots of 100 μL were transferred into the other 1.5-ml plastic tubes. The samples were extracted with 1 mL of 100% acetonitrile for 10 min on 180° rotator. Then, the tubes were centrifuged at 10,000 g for 15 min.
as §1, §2
The concentrations of amlexanox in samples were determined by comparison with calibration curve obtained from spiked dog plasma samples using the same analytical method. The areas under the curves (AUC) of amlexanox were calculated by trapezoidal method.

[3] = dog plasma, oral, listed as Amlexanox Acid

**Q.** For `CC(C)c1ccc2oc3nc(N)c(C(=O)O)cc3c(=O)c2c1` [Amlexanox, 2-amino-7-isopropyl-1-azaxanthone-3-carboxylic acid], which AUC ([1]; 10 mg/kg) is on record?
**A.** Its AUC is 1050 ng·h/mL.

**Q.** And the Cmax ([1]; 10 mg/kg)?
**A.** Its Cmax is 370 ng/mL.

**Q.** What about the MRT ([1]; 10 mg/kg) of the same compound?
**A.** The MRT was 6.28 h.

**Q.** What about the half-life ([1]; 10 mg/kg) of the same compound?
**A.** The half-life was 4.36 h.

**Q.** And the bioavailability ([1]; 10 mg/kg, 10 mg/kg)?
**A.** Its bioavailability is 31.5%.

**Q.** What about the AUC ([1]; 25 mg/kg) of the same compound?
**A.** The AUC was 1380 ng·h/mL.

**Q.** And the Cmax ([1]; 25 mg/kg)?
**A.** Its Cmax is 260 ng/mL.

**Q.** And the MRT ([1]; 25 mg/kg)?
**A.** Its MRT is 11.3 h.

**Q.** And the half-life ([1]; 25 mg/kg)?
**A.** The half-life was 7.81 h.

**Q.** And the bioavailability ([1]; 25 mg/kg, 25 mg/kg)?
**A.** Its bioavailability is 2.9%.

**Q.** What about the AUC ([1]; 50 mg/kg) of the same compound?
**A.** Its AUC is 2380 ng·h/mL.

**Q.** And the Cmax ([1]; 50 mg/kg)?
**A.** The Cmax was 580 ng/mL.

**Q.** And the MRT ([1]; 50 mg/kg)?
**A.** Its MRT is 8.43 h.

**Q.** What about the half-life ([1]; 50 mg/kg) of the same compound?
**A.** Its half-life is 5.84 h.

**Q.** And the bioavailability ([1]; 50 mg/kg, 50 mg/kg)?
**A.** The bioavailability was 1.1%.

**Q.** What about the AUC ([1]; 100 mg/kg) of the same compound?
**A.** Its AUC is 8830 ng·h/mL.

**Q.** And the Cmax ([1]; 100 mg/kg)?
**A.** Its Cmax is 1170 ng/mL.

**Q.** What about the MRT ([1]; 100 mg/kg) of the same compound?
**A.** The MRT was 8.7 h.

**Q.** And the half-life ([1]; 100 mg/kg)?
**A.** The half-life was 6.04 h.

**Q.** And the bioavailability ([1]; 100 mg/kg, 100 mg/kg)?
**A.** Its bioavailability is 2.2%.

**Q.** And the AUC ([1]; 200 mg/kg)?
**A.** Its AUC is 18600 ng·h/mL.

**Q.** And the Cmax ([1]; 200 mg/kg)?
**A.** The Cmax was 7000 ng/mL.

**Q.** And the MRT ([1]; 200 mg/kg)?
**A.** The MRT was 5.32 h.

**Q.** What about the half-life ([1]; 200 mg/kg) of the same compound?
**A.** The half-life was 3.68 h.

**Q.** And the bioavailability ([1]; 200 mg/kg, 200 mg/kg)?
**A.** The bioavailability was 2.5%.

**Q.** What about the CL ([1]; 10 mg/kg) of the same compound?
**A.** Its CL is 158 mL/min/kg.

**Q.** And the Vss ([1]; 10 mg/kg)?
**A.** Its Vss is 59.8 L/kg.

**Q.** What about the CL ([1]; 25 mg/kg) of the same compound?
**A.** Its CL is 301.7 mL/min/kg.

**Q.** And the Vss ([1]; 25 mg/kg)?
**A.** Its Vss is 204 L/kg.

**Q.** And the CL ([1]; 50 mg/kg)?
**A.** Its CL is 350.2 mL/min/kg.

**Q.** And the Vss ([1]; 50 mg/kg)?
**A.** Its Vss is 177.2 L/kg.

**Q.** What about the CL ([1]; 100 mg/kg) of the same compound?
**A.** The CL was 188.3 mL/min/kg.

**Q.** What about the Vss ([1]; 100 mg/kg) of the same compound?
**A.** Its Vss is 98.5 L/kg.

**Q.** And the CL ([1]; 200 mg/kg)?
**A.** The CL was 89.5 mL/min/kg.

**Q.** What about the Vss ([1]; 200 mg/kg) of the same compound?
**A.** Its Vss is 28.5 L/kg.

**Q.** What about the AUC [2, 3] of the same compound?
**A.** Its AUC is 7600 ng·h/mL.

**Q.** And the CL [2, 3]?
**A.** The CL was 21.7 mL/min/kg.

**Q.** What about the Cmax [2, 3] of the same compound?
**A.** Its Cmax is 3400 ng/mL.

**Q.** And the Vss [2, 3]?
**A.** The Vss was 4.3 L/kg.

**Q.** What about the half-life ([2]; male, Beagle, dog, plasma, po) of the same compound?
**A.** The half-life was 2.3 h.

**Q.** What about the MRT ([2]; male, Beagle, dog, plasma, po, read-out: MRT) of the same compound?
**A.** The MRT was 3.3 h.

From patent US7772255B2, “Method of treating tumors with azaxanthones” (Supratek Pharma, Inc., priority 2005, dated 2010)
